Test results: patent US20240368605A1, “USE OF SPLICE SWITCHING OLIGONUCLEOTIDES FOR EXON SKIPPING-MEDIATED KNOCKDOWN OF PIM2” (INSTITUT NATIONAL DE LA SANTÉ ET DE LA RECHERCHE MÉDICALE, priority 2021, published 2024)

Experiments:
PBs [1] = test: Mitochondria/Caspase 3-driven apoptosis and viability of PBs; format: cell-based, human
Description: Mitochondrial-driven cell death is activated once the mitochondria lose the ability to maintain the inner membrane potential, resulting in the release of proapoptotic proteins into the cytosol. Commitment towards PBs is sustained by an extensive reconfiguration of the epigenetic landscape and of gene expression patterns, both showing that the most prominent function involves cell death and survival (Caron et al., 2015). […] We then investigated the different cell subsets generated through the differentiation model at the protein level for factors involved in apoptosis triggered by mitochondria (data not shown). The PBs compared to all other subsets increased the expression of pBAD and XIAP, both proteins counteract the apoptotic pathway and were described in PIM2-induced survival effect (data not shown) (Fox, 2003; Macdonald et al., 2006; Yan et al., 2003). In accordance with this finding and despite a strong increase in procaspase 3 protein (32 kDa size), PBs decrease the autocatalytic activity of Caspase 3 and therefore the production of p19/p17 apoptosis executors as highlighted by the low levels of cleaved PARP (data not shown) (Ponder and Boise, 2019). […] In addition, we found in P2/CD23+ cells a complete degradation of PARP which illustrate the fact that the apoptosis process is consubstantially associated with the B cell terminal differentiation if cells are not otherwise protected (data not shown).
We then inhibited PIM2 which led to an intense activation of Caspase 3 and a decrease of viability of PBs. The latter was rescued by the Caspase 3 inhibitor Q-DEVD-OPH (data not shown).
(§1) The differentiation of immature monocytes is associated with a relocalization of nuclear p21^Cip1/WAF1 to the cytoplasm where the protein participates to apoptosis blockage (Asada, 1999). In addition, Suzuki et al. ascribed the formation of a Procaspase 3/p21^Cip1/WAF1 complex in the context of resistance to Fas-mediated cell death owing to the phosphorylation of p21 by protein kinase A (Suzuki et al., 2000). We wanted therefore to explore whether p21^Cip1/WAF1 may bind Procaspase 3 and developed to this end a FRET approach which detected a signal of energy transfer compatible with such physical interaction. […] We then confirmed the binding between p21^Cip1/WAF1 and Caspase 3 in XG21 cells and in PBs by IP (data not shown). Finally, to confirm the anti-apoptotic role of cytoplasmic p21^Cip1/WAF1 in PBs we inhibited p21^Cip1/WAF1 expression by a siRNA targeting CDKN1A in in vitro D4 B cells (data not shown) and found an activation of the execution of apoptosis characterized by the detection of the p17-fragment cleavage of caspase 3 in parallel to the cleavage of PARP (data not shown) and similar results were found in XG21 cells (data not shown). […] The role of PIM2 is to stabilize p21^Cip1/WAF1 protein in the cytoplasm allowing therefore the formation a multiprotein complex which inhibits Caspase 3 full activation (data not shown).

PBs [2] = test: Number of PBs in S-phase of the cell cycle; format: cell-based, human
Description: (§2) Since PIM2 acts at multiple cellular levels, we wanted to investigate how this kinase impacts this step of the differentiation. […] To explore this hypothesis, we investigated the G1/S transition of the cell cycle by using the multiple myeloma-derived cell line XG21 which presents an IL-6/STAT3-dependent PIM2 expression and proliferation (data not shown). To this end, we established a double thymidine block to arrest cells in G1-phase, and then released thymidine before subsequent cell cycle analysis. […] In presence of PIM2 blockade regardless of the type of inhibition, cells remained largely arrested in G1 phase until 16 h before starting to die (data not shown). The transition of G1 to S phase of the cell cycle requires the phosphatase CDC25A. We found a significant increase of CDC25A gene expression in PBs compared to CD23+ aBC and chemical inhibition of the phosphatase led to a dramatic decrease of the number of PBs in S phase (data not shown). We then wondered whether PIM2 has an effect on CDC25A as described for PIM1 which increased the catalytic activity after its binding to the phosphatase (Mochizuki et al., 1999). By western blot we detected CDC25A protein in PBs which disappeared in presence of PIMi (data not shown). PIM2 blockade led also to the downregulation of CDC25A and MKI67 gene expression (data not shown).

CDC25A = CDC25A protein in PBs by western blot; format: cell-based, human
Description: as §2

p21^Cip1/WAF1 [3] = test: CDKN1A gene and p21^Cip1/WAF1 protein expression in PBs; format: cell-based, human; conditions: PBs treated conjointly by MG-132 and PIMi
Description: (§3) Like p27^Kip1, p21^Cip1/WAF1 is a tight-binding inhibitor of CDKs and inhibits cell cycle entry into S phase (Elledge et al., 1996). Plasmablast commitment leads to a significant increase of the CDKN1A gene, which encodes p21^Cip1/WAF1, and this independently to the expression of TP53 (data not shown). […] We then wondered whether PIM2 could modify p21^Cip1/WAF1 expression. […] To address this scenario, we developed endogenous protein immunoprecipitation (IP) and found in generated PBs and XG21 cell line as well that PIM2, p21^Cip1/WAF1 and HSP90β form a cytoplasmic multiprotein complex (data not shown).

p21^Cip1/WAF1 [4] = test: p21^Cip1/WAF1 protein expression in XG21 cells; format: cell-based, human; conditions: XG21 cells treated conjointly by MG-132 and PIMi
Description: as §3

[5] = tested on: p21^Cip1/WAF1/Procaspase 3 complex; test: FRET between p21^Cip1/WAF1 and Procaspase 3; format: cell-based; conditions: added to the cell culture
Description: as §1

ePCs = test: Apoptosis markers in early plasma cells (ePCs) by western blot; format: cell-based, human
Description: Plasma cell maturation is a continuum that spans from PBs to fully mature PCs corresponding to long-lived PCs such as those residing in the bone marrow (BM) PC niche where their survival depends on various extrinsic factors. […] We then explored PIM2 expression at the protein level in CD138^+ or BCMA^+ PCs on BM biopsies from patients free from malignant hemopathies obtained from the Pathology department of our institution (F. Llamas-Gutierrez). Single staining was firstly tested by chromogenic immunohistochemistry (CIH) or immunofluorescence (IF) on paraffin-embedded tissue sections followed by multiple staining by IF. Both, CD138 and BCMA staining allowed to identify PCs with, in some areas, high number of positive cells that possibly were close from CD41-positive megakaryocytes and enriched for IL-6 expression (data not shown). In addition, all observed BM PCs expressed PIM2 with a strong intensity (data not shown). To determine the regulation and functional contribution of PIM2 in mature PCs, we produced CD38^hi/CD138^+ PCs by leaving D7 to D10 generated PBs in culture media containing IL-2, IL-10, IL-6 and IFN-alpha (data not shown). Under this condition, the number of CD138^+ cells increased progressively while the number of cells in S-phase of the cell cycle decreased gradually with, respectively, 60.3±8.1% and 3.5±0.3% at D10 (data not shown). In parallel, cells decreased and increased, respectively, the expression of CDC25A and CDKN1B with for the latter, p27^Kip1 protein exclusively detectable in the nucleus at D10 as expected for fully differentiated cells arrested in the cell cycle (data not shown). […] In addition, in these cells, compared to PBs, we observed an increase of PIM2 gene expression as well as its protein level (data not shown).
We then investigated the other factors described above at the protein levels and detected by western blot in ePCs compared to PBs—and besides p27^Kip1 and PIM2—a significant elevation of Caspase 3 and p21^Cip1/WAF1 protein expression (data not shown).

MM = test: Combinations of increasing drug-concentration of PIM inhibitor and MCL1 inhibitor; format: cell-based; conditions: increasing concentrations of both drugs
[6] = tested on: activated B cells diverted from the PB commitment; test: Apoptosis of activated B cells diverted from the PB commitment at D6; format: cell-based, human; conditions: D6, original in vitro model
Description: Mitochondrial-driven cell death is activated once the mitochondria lose the ability to maintain the inner membrane potential, resulting in the release of proapoptotic proteins into the cytosol. Commitment towards PBs is sustained by an extensive reconfiguration of the epigenetic landscape and of gene expression patterns, both showing that the most prominent function involves cell death and survival (Caron et al., 2015). […] We then investigated the different cell subsets generated through the differentiation model at the protein level for factors involved in apoptosis triggered by mitochondria (data not shown). The PBs compared to all other subsets increased the expression of pBAD and XIAP, both proteins counteract the apoptotic pathway and were described in PIM2-induced survival effect (data not shown) (Fox, 2003; Macdonald et al., 2006; Yan et al., 2003). In accordance with this finding and despite a strong increase in procaspase 3 protein (32 kDa size), PBs decrease the autocatalytic activity of Caspase 3 and therefore the production of p19/p17 apoptosis executors as highlighted by the low levels of cleaved PARP (data not shown) (Ponder and Boise, 2019). […]

MM cell lines = test: PIM2 protein expression and drug effects in MM cell lines; format: cell-based, human; conditions: western blot, after proteasome inhibition
Description: Using data of the Dependency Map (DepMap) portal (https://depmap.org/portal/), we evaluated mRNA expression of PIM2 in silico across >700 different malignant cell lines, including 20 MM cell lines. […] This was specific to PIM2, as PIM1 expression is not overexpress in MM cell lines (data not shown). We confirm the high expression of PIM2 protein in eight MM lines, which correlates well with RNA expression, noting however a large heterogeneity of expression (data not shown) Also, using CRISPR screening of DepMap data, dependency scores of PIM2 underline their specific importance for MM cell survival compared to all cell lines tested, and as compared to PIM1 data not shown). To evaluate potential correlations between PIM2 expression and clinicals outcomes, we analyzed TT2 cohort of the university of Arkansas and within the myeloma patient molecular subgroups. […] Our analysis of the CoMMpass cohort also as PIM2 expression above the cutoff (determined by MaxStat method) in the large dataset correlated with shorter overall survival (P=0.000573) (data not shown). […] These last result fit well with the fact that PIM2 protein expression increase after proteasome inhibition with drug as carfilzomib as show by western blot in MM cell lines (data not shown), leading to an increase of their prosurvival activity as shown described (Adam et al., 2015).

XG21 = test: Caspase 3 activation in XG21; format: cell-based, human
Description: as §1

In the case of `N[C@@H]1CCCN(c2c(/C=C3\SC(=O)NC3=O)cccc2-c2ccccc2)C1` [PIMi, AZD1208], the “cleaved PARP protein” value (PBs [1]; PBs) is reported as “production of cleaved PARP protein”, the mitochondrial depolarization (PBs [1]; PBs) is reported as “strong mitochondrial depolarization” and the “pBAD and XIAP protein” value (PBs [1]; PBs) is reported as “decrease of pBAD and XIAP”. For the same molecule, the “number of PBs in S-phase” value (PBs [2]) was “decreased drastically, in a dose-dependent manner”, the “CDC25A protein in PBs” value (CDC25A) was “disappeared” and the “p21^Cip1/WAF1 expression” value (p21^Cip1/WAF1 [3]) was “maintained their p21^Cip1/WAF1 expression but in a poly-ubiquitinylated form”. For the same molecule, the “p21^Cip1/WAF1 expression” value (p21^Cip1/WAF1 [4]) was “maintained their p21^Cip1/WAF1 expression but in a poly-ubiquitinylated form”, the “FRET signal of energy transfer p21^Cip1/WAF1 / Procaspase 3” value [5] was “abolished the signal” and the “Caspase 3 activation” value (ePCs) was “activation of Caspase 3 with production of the catalytic active p17 fragment”. For the same molecule, the XIAP protein (ePCs) was “decrease of XIAP protein”, the “cleaved-Caspase 9 fragment” value (ePCs) was “increase of cleaved-Caspase 9 fragment” and the “p21^Cip1/WAF1 expression” value (ePCs) was “decrease of p21^Cip1/WAF1 expression”. The “synergy of the combination AZD1208 and AZD5991” value (MM) was “hard synergy”.
In the case of Q-DEVD-OPH, the “viability of PBs after PIM2 inhibition” value (PBs [1]; Caspase 3 inhibitor added to PIM2-inhibited PBs) is reported as “rescued” and the “cell viability after UC2288” value (PBs [1]; Caspase 3 inhibitor added to UC2288-treated cells) is reported as “restores cell viability”.
For `CC(C)[C@H](NC(=O)c1ccc2ccccc2n1)C(=O)N[C@@H](CC(=O)O)C(=O)COc1c(F)cccc1F` [QVD-OPH], the rescue from apoptosis [6] was “rescued from apoptosis”.
For `CC(C)C[C@H](NC(=O)[C@H](CCc1ccccc1)NC(=O)CN1CCOCC1)C(=O)N[C@@H](Cc1ccccc1)C(=O)N[C@@H](CC(C)C)C(=O)[C@@]1(C)CO1` [carfilzomib], the PIM2 protein expression (MM cell lines) was “increase”.
With `O=C(Nc1ccc(Cl)c(C(F)(F)F)c1)NC1CCC(Oc2ccc(C(F)(F)F)cn2)CC1` (centres unmarked) [UC2288] the “Caspase 3 activation” value (PBs [1]; PBs) was “dose-dependent increase of Caspase 3 activation”, the apoptosis induction (PBs [1]; by inhibiting p21^Cip1/WAF1 protein expression) was “induced a Caspase 3-mediated apoptosis” and the “Caspase 3 activation” value (XG21) was “dose-dependent increase of Caspase 3 activation”.
